Results from patent US10561703B2, “Method of modulating sex hormone levels using a sex hormone secretion modulator” (GEMVAX & KAEL CO., LTD., priority 2013, dated 2020).

Test system: LH
Experiment: LH level in blood (serum CLIA) after repeated sc PEP-1
Type: in vivo, SD rats
Protocol: PEP-1 (peptide of SEQ ID NO: 1), lyophilized white powder, obtained according to the method mentioned in example 1 was dissolved in 0.9% of saline, considering the correction factor of PEP-1 (purity: 94.13%, content: 92.36%, correction factor: 1.15). 50 mg/mL stock solution was further diluted into 20 mg/mL, 2 mg/mL, and 1 mg/mL with 0.9% saline, and stored at 4° C. for a week until the use.
The purpose of this example is to confirm the change of sexual hormones in blood from SD rats with 7 days repeated daily administration of SEQ ID NO: 1 peptide, PEP-1. This experiment followed the Ethics Regulation of Animal Test by KAMSI Inc. (Korea Animal Medical Science Institute). In addition, this experiment, Non-GLP experiment, referred to the MFDS (Ministry of Food and Drug Safety) notification; Agent 2013-40 (5th April 2013), Principles of Good Laboratory Practice (1997).
SPF Rats (Crlj:CD(SD)) were purchased from ORIENTBio Inc. (Mokdong-ri, Buk-myeon, Gapyeong-gun, Gyeonggi-do, Republic of Korea). 75 male (6.5 weeks old and 190˜210 g) and 75 female (6.5 weeks old and 160˜180 g) rats were monitored for 4 days, and 64 of male and female rats (each) were selected for the experiment. Raising condition is as follows; 23±3° C. of temperature, […] of relative humidity, 10˜20 times/hr of number of air changes, 12 hours (8 a.m.˜8 p.m.) of lighting with 150˜300 Lux of intensity.
64 male and female […] (mentioned above) were divided into 8 groups. Administration regimen, for example, drugs, routes, dosages, and volumes were as follows:
The detailed administration regimen is as follows; once a day, twice a day and twice a week in each experimental group. Injection initiated at 10 a.m. every day, and each rat was injected at one minute intervals. Rats in Group 9, 10, 13 and 14 were injected twice a week. Administration of high dose test agent preceded that of low dose. The volume of injection was calculated using recently measured weight of rats, and it was 5 mL/kg. Subcutaneous injection was performed as follows; assistant tilted the back of rat upward, and experimenter sterilized the back of rat with 70% alcohol, followed by subcutaneous injection of test agent with 26 G syringe.
1.4 mL of blood sample (0.7 mL of serum) was collected after measurement of weight (Day 0). Next day (1 Day), 1.4 mL of blood sample (0.7 mL of serum) was collected twice after injection of test agent (4 hrs and 8 hrs after administration of test agent). For next 6 days (Day 2˜Day 7), 1.4 mL of blood was extracted once everyday (4 hours after injection of test agent). Dose and volume of test agent of each group followed the Table 3, and injection time zone was same every day. Blood was extracted from the jugular vein, and left at room temperature for 30 minutes. Serum was separated using centrifugation (10,000 rpm for 5 minutes), and stored at −70±5° C. in Deep freezer until the use. Blood extraction from each subject was done in the same time zone every day.
A CLIA (Chemi-Luminescence Immune Assay) Kit was used to analyze Testosterone, Estradiol E2, FSH (Follicle stimulating hormone), and LH (Luteinizing hormone). Analysis was completed within 48 hrs after blood extraction (Laboratory Medicine Department, Chung-Ang University Hospital), and detailed method is as follows; One-way ANOVA was used to verify the comparison between the vehicle and PEP-1, and between different doses of PEP-1. For further analysis, Duncan test was used as parametric test and Dunnett's test as non-parametric test. p<0.05 represents the statistical significance, and all statistical analysis was carried out with SPSS 10.1.
LH was analyzed using the samples prepared from example 2. 50 μL of serum was used for analysis. Fundamentals of analysis is Two-site sandwich immunoassay based on direct chemi-luminescent. As mentioned in example 2, CLIA (Chemi-luminescence immune assay) Kit was used, following the manufacture's protocol.

EARPALLTSRLRFIPK (listed as Homo sapiens) [PEP-1, hormone secretion modulator / GnRH analog]
LH level in blood (G3 Male 5 mg/kg sc 1/day x7, 7 days): 0.13 mIU/mL | LH level in blood (G4 Female 5 mg/kg sc 1/day x7, 4 hr): 0.16 mIU/mL | LH level in blood (G4 Female 5 mg/kg sc 1/day x7, 8 hr): 0.24 mIU/mL | LH level in blood (G4 Female 5 mg/kg sc 1/day x7, 2 days): 0.19 mIU/mL | LH level in blood (G4 Female 5 mg/kg sc 1/day x7, 3 days): 0.13 mIU/mL | LH level in blood (G4 Female 5 mg/kg sc 1/day x7, 4 days): 0.13 mIU/mL | LH level in blood (G4 Female 5 mg/kg sc 1/day x7, 5 days): 0.14 mIU/mL | LH level in blood (G4 Female 5 mg/kg sc 1/day x7, 6 days): 0.14 mIU/mL | LH level in blood (G4 Female 5 mg/kg sc 1/day x7, 7 days): 0.16 mIU/mL | LH level in blood (G4 Female 5 mg/kg sc 1/day x7, pre): 0.12 mIU/mL | LH level in blood (G6 Female 10 mg/kg sc 1/day x7, 4 hr): 0.41 mIU/mL | LH level in blood (G6 Female 10 mg/kg sc 1/day x7, 8 hr): 0.26 mIU/mL | LH level in blood (G6 Female 10 mg/kg sc 1/day x7, 2 days): 0.22 mIU/mL | LH level in blood (G6 Female 10 mg/kg sc 1/day x7, 3 days): 0.19 mIU/mL | LH level in blood (G6 Female 10 mg/kg sc 1/day x7, 4 days): 0.15 mIU/mL | LH level in blood (G6 Female 10 mg/kg sc 1/day x7, 5 days): 0.15 mIU/mL | LH level in blood (G6 Female 10 mg/kg sc 1/day x7, 6 days): 0.17 mIU/mL | LH level in blood (G6 Female 10 mg/kg sc 1/day x7, 7 days): 0.16 mIU/mL | LH level in blood (G6 Female 10 mg/kg sc 1/day x7, pre): 0.12 mIU/mL | LH level in blood (G8 Female 10 mg/kg sc 2/day x4, 4 hr): 0.22 mIU/mL | LH level in blood (G8 Female 10 mg/kg sc 2/day x4, 8 hr): 0.15 mIU/mL | LH level in blood (G8 Female 10 mg/kg sc 2/day x4, 2 days): 0.17 mIU/mL | LH level in blood (G8 Female 10 mg/kg sc 2/day x4, 3 days): 0.28 mIU/mL | LH level in blood (G8 Female 10 mg/kg sc 2/day x4, 4 days): 0.13 mIU/mL | LH level in blood (G8 Female 10 mg/kg sc 2/day x4, 5 days): 0.23 mIU/mL | LH level in blood (G8 Female 10 mg/kg sc 2/day x4, 6 days): 0.15 mIU/mL | LH level in blood (G8 Female 10 mg/kg sc 2/day x4, 7 days): 0.28 mIU/mL | LH level in blood (G8 Female 10 mg/kg sc 2/day x4, pre): 0.13 mIU/mL | LH level in blood (G9 Male 10 mg/kg sc 2/week x2 (days 1,7), 4 hr): 0.62 mIU/mL | LH level in blood (G9 Male 10 mg/kg sc 2/week x2 (days 1,7), 8 hr): 0.14 mIU/mL | LH level in blood (G9 Male 10 mg/kg sc 2/week x2 (days 1,7), 2 days): 0.12 mIU/mL | LH level in blood (G9 Male 10 mg/kg sc 2/week x2 (days 1,7), 3 days): 0.12 mIU/mL | LH level in blood (G9 Male 10 mg/kg sc 2/week x2 (days 1,7), 4 days): 0.13 mIU/mL | LH level in blood (G9 Male 10 mg/kg sc 2/week x2 (days 1,7), 5 days): 0.14 mIU/mL | LH level in blood (G9 Male 10 mg/kg sc 2/week x2 (days 1,7), 6 days): 0.11 mIU/mL | LH level in blood (G9 Male 10 mg/kg sc 2/week x2 (days 1,7), 7 days): 0.67 mIU/mL | LH level in blood (G9 Male 10 mg/kg sc 2/week x2 (days 1,7), pre): 0.12 mIU/mL | LH level in blood (G10 Female 10 mg/kg sc 2/week x2 (days 1,7), 4 hr): 0.25 mIU/mL | LH level in blood (G10 Female 10 mg/kg sc 2/week x2 (days 1,7), 8 hr): 0.23 mIU/mL | LH level in blood (G10 Female 10 mg/kg sc 2/week x2 (days 1,7), 2 days): 0.17 mIU/mL | LH level in blood (G10 Female 10 mg/kg sc 2/week x2 (days 1,7), 3 days): 0.14 mIU/mL | LH level in blood (G10 Female 10 mg/kg sc 2/week x2 (days 1,7), 4 days): 0.13 mIU/mL | LH level in blood (G10 Female 10 mg/kg sc 2/week x2 (days 1,7), 5 days): 0.15 mIU/mL | LH level in blood (G10 Female 10 mg/kg sc 2/week x2 (days 1,7), 6 days): 0.12 mIU/mL | LH level in blood (G10 Female 10 mg/kg sc 2/week x2 (days 1,7), 7 days): 0.26 mIU/mL | LH level in blood (G10 Female 10 mg/kg sc 2/week x2 (days 1,7), pre): 0.25 mIU/mL | LH level in blood (G11 Male 100 mg/kg sc 1/day x7, 4 hr): 1.16 mIU/mL | LH level in blood (G11 Male 100 mg/kg sc 1/day x7, 8 hr): 0.18 mIU/mL | LH level in blood (G11 Male 100 mg/kg sc 1/day x7, 2 days): 0.28 mIU/mL | LH level in blood (G11 Male 100 mg/kg sc 1/day x7, 3 days): 0.23 mIU/mL | LH level in blood (G11 Male 100 mg/kg sc 1/day x7, 4 days): 0.18 mIU/mL
